Laboratory results: patent publication US5925633A, “3-Substituted-4-oxa-1-azabicyclo [3,2,0]heptan-7-one as cysteine protease inhibitors” (Synphar Laboraties, Inc., priority 1996, dated 1999)

Key:
cathepsin B = cathepsin B (Rattus norvegicus, UniProt P00787); test: In vitro assay procedure for cathepsin B (inhibition); assay type: biochemical; conditions: rat cathepsin B, pH 5.1, 10 min incubation at room temperature, substrate N-CBZ-Phe-Arg-AMC; read-out: IC50 Cathepsin B
Protocol: The compounds of formula I were tested for inhibition of cathepsin B using the known method (A. J. Barret et al., Biochem. J. 1982, 201, 189-198). […] After 10 min of incubation at room temperature, a 20 μl of 5 mM substrate (N-CBZ-Phe-Arg-AMC, dissolved in DMSO) was added to initiate reaction. Reading is followed up for 10 min at the fluoroscan reader (excitation at 380 nm, emission at 460 nm).

papain = target: T1, papain (Carica papaya, UniProt P00784); test: In vitro assay procedure for papain (inhibition); assay type: biochemical; conditions: pH 6.5, 10 min incubation at room temperature, substrate N-CBZ-Pro-Phe-Arg-pNA; read-out: IC50 Papain
T1 sequence (P00784 134-345): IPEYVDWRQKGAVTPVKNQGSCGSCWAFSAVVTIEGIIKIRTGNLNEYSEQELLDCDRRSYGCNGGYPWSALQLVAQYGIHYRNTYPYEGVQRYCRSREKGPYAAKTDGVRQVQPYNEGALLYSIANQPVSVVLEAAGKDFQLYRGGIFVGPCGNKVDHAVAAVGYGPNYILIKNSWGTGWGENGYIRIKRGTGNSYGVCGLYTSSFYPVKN
Protocol: To a 170 μl of enzyme-buffer mixture (enzyme: papain, diluted to give 30 mOD/min, buffer: 0.2 M potassium phosphate, 1.0 mM EDTA, 5 mM L-Cysteine, pH 6.5) a 10 μL of inhibitor (dissolved in DMSO) was added. After 10 min of incubation at room temperature, a 20 μl of 10 mM substrate (N-CBZ-Pro-Phe-Arg-pNA, dissolved in DMSO) was added to initiate reaction. Reading is followed up for 3 min at the Thermomax plate reader (absorbance at 405 nm)
A plot of percentage of inhibition vs inhibitor concentration is obtained, and IC50 is determined using a linear regression calculations (concentration of inhibitor which will give 50% inhibition).

Chain of cathepsin B (P00787 80-339): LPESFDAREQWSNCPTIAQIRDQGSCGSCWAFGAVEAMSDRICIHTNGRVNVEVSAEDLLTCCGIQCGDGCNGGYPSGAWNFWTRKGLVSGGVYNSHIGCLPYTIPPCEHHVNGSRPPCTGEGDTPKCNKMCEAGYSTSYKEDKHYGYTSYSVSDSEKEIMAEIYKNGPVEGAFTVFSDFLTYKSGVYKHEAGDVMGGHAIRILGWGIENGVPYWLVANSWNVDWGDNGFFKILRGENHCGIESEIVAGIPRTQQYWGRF

Q: Which IC50 (cathepsin B) does the source give for `CC(=O)NCC(=O)NCC1CN2C(=O)CC2O1` (centres unmarked) [Example 31] here?
A: 2600 nM

Q: And the IC50 (papain)?
A: 4100 nM

Q: With `CCCCCC(=O)NCC1CN2C(=O)CC2O1` (centres unmarked) [Example 32] as the compound, how does the IC50 (cathepsin B) read?
A: 2300 nM

Q: And the IC50 (papain)?
A: 2300 nM

Q: Which IC50 (cathepsin B) does the source give for `CS(=O)(=O)NCC1CN2C(=O)CC2O1` (centres unmarked) [Example 33] here?
A: 950 nM

Q: And the IC50 (papain)?
A: 910 nM

Q: For `CC(=O)NCC[S+]([O-])CC1CN2C(=O)CC2O1` (centres unmarked) [Example 34], which IC50 (cathepsin B) is on record?
A: 14600 nM

Q: What about the IC50 (papain) of the same compound?
A: 3800 nM

Q: What does the source list for `O=C(O)CS(=O)(=O)CC1CN2C(=O)CC2O1` (centres unmarked) [Example 35]?
A: IC50 (cathepsin B): 740 nM; IC50 (papain): 12900 nM

Q: Which results are given for `CCCCCCCCCCCCCCCC(=O)OCC1CN2C(=O)CC2O1` (centres unmarked) [Example 36]?
A: IC50 (cathepsin B): > 50000 nM; IC50 (papain): > 50000 nM

Q: `O=C(O)C=CC(=O)OCC1CN2C(=O)CC2O1` (centres unmarked) [Example 37] was tested. Which IC50 (cathepsin B) did it give?
A: 1900 nM

Q: And the IC50 (papain)?
A: 19000 nM

Q: For `O=COCCCCCC(=O)NCC1CN2C(=O)CC2O1` (centres unmarked) [Example 38], which IC50 (cathepsin B) is on record?
A: 3500 nM

Q: And the IC50 (papain)?
A: 2200 nM

Q: What does the source list for `NCC1CN2C(=O)CC2O1` (centres unmarked) [Example 39]?
A: IC50 (cathepsin B): 5500 nM; IC50 (papain): 5500 nM

Q: For `NC(CC(=O)O)C(=O)NCC(=O)NCC1CN2C(=O)CC2O1` (centres unmarked) [Example 40], which IC50 (cathepsin B) is on record?
A: 15900 nM

Q: And the IC50 (papain)?
A: 8300 nM

Q: `CC(=O)NCCCCC(NC(C)=O)C(=O)OCC1CN2C(=O)CC2O1` (centres unmarked) [Example 43] was tested. Which IC50 (cathepsin B) did it give?
A: > 70000 nM

Q: And the IC50 (papain)?
A: 1770 nM

Q: For `CC(=O)OCC1CN2C(=O)CC2O1` (centres unmarked) [Example 44], which IC50 (cathepsin B) is on record?
A: 1100 nM

Q: What about the IC50 (papain) of the same compound?
A: 210 nM

Q: For `O=C(CO)NCC1CN2C(=O)CC2O1` (centres unmarked) [Example 45], which IC50 (cathepsin B) is on record?
A: 5000 nM

Q: What about the IC50 (papain) of the same compound?
A: 1690 nM

Q: What does the source list for `O=C(OCC1CN2C(=O)CC2O1)c1ccc2c(c1)C(=O)c1ccccc1C2=O` (centres unmarked) [Example 46]?
A: IC50 (cathepsin B): 530 nM; IC50 (papain): 21 nM

Q: How did the IC50 (cathepsin B) turn out when `COc1ccc(C(=O)NCC2CN3C(=O)CC3O2)cc1OC` (centres unmarked) [Example 47] was run?
A: 8800 nM

Q: What about the IC50 (papain) of the same compound?
A: 130 nM

Q: `O=C1CC2OC(CSc3ccccc3)CN12` (centres unmarked) [Example 48] was tested. Which IC50 (cathepsin B) did it give?
A: 420 nM

Q: And the IC50 (papain)?
A: 850 nM

Q: Which IC50 (cathepsin B) does the source give for `NC(Cc1ccccc1)C(=O)NCC1CN2C(=O)CC2O1` (centres unmarked) [Example 49] here?
A: 3080 nM

Q: What about the IC50 (papain) of the same compound?
A: 620 nM

Q: How did the IC50 (cathepsin B) turn out when `O=C(OCC1CN2C(=O)CC2O1)c1ccc(O)c(O)c1` (centres unmarked) [Example 50] was run?
A: 460 nM

Q: What about the IC50 (papain) of the same compound?
A: 2500 nM

Q: Which results are given for `COc1ccc(C(=O)OCC2CN3C(=O)CC3O2)cc1OC` (centres unmarked) [Example 51]?
A: IC50 (cathepsin B): 3300 nM; IC50 (papain): 130 nM

Q: For `COc1cc(C(=O)OCC2CN3C(=O)CC3O2)cc(OC)c1O` (centres unmarked) [Example 52], which IC50 (cathepsin B) is on record?
A: 3100 nM

Q: What about the IC50 (papain) of the same compound?
A: 620 nM

Q: `Nc1ccc(C(=O)OCC2CN3C(=O)CC3O2)cc1` (centres unmarked) [Example 53] was tested. Which IC50 (cathepsin B) did it give?
A: 3800 nM

Q: What about the IC50 (papain) of the same compound?
A: 2400 nM

Q: `O=C(OCC1CN2C(=O)CC2O1)c1cc(F)c(F)cc1F` (centres unmarked) [Example 54] was tested. Which IC50 (cathepsin B) did it give?
A: 8300 nM

Q: And the IC50 (papain)?
A: 660 nM

Q: Which IC50 (cathepsin B) does the source give for `N#Cc1ccc(C(=O)OCC2CN3C(=O)CC3O2)cc1` (centres unmarked) [Example 55] here?
A: 3700 nM

Q: What about the IC50 (papain) of the same compound?
A: 740 nM

Q: `Cc1ccc(S(=O)(=O)NCC2CN3C(=O)CC3O2)cc1` (centres unmarked) [Example 56] was tested. Which IC50 (cathepsin B) did it give?
A: 670 nM

Q: And the IC50 (papain)?
A: 1760 nM

Q: What does the source list for `O=C1CC2OC(CNS(=O)(=O)c3ccc(Cl)cc3)CN12` (centres unmarked) [Example 57]?
A: IC50 (cathepsin B): 630 nM; IC50 (papain): 630 nM

Q: Which results are given for `O=C(NCC1CN2C(=O)CC2O1)c1ccccc1` (centres unmarked) [Example 58]?
A: IC50 (cathepsin B): 4100 nM; IC50 (papain): 810 nM

Q: Which IC50 (cathepsin B) does the source give for `COc1ccc(S(=O)(=O)NCC2CN3C(=O)CC3O2)cc1` (centres unmarked) [Example 59] here?
A: 640 nM

Q: And the IC50 (papain)?
A: 3200 nM

Q: How did the IC50 (cathepsin B) turn out when `O=C(OCC1CN2C(=O)CC2O1)c1ccccc1` (centres unmarked) [Example 60] was run?
A: 4000 nM

Q: And the IC50 (papain)?
A: 4000 nM

Q: Which results are given for `O=C1CC2OC(CS(=O)(=O)c3ccccc3)CN12` (centres unmarked) [Example 61]?
A: IC50 (cathepsin B): 1600 nM; IC50 (papain): 1600 nM

Q: Which IC50 (cathepsin B) does the source give for `O=C1CC2OC(C[S+]([O-])Cc3ccccc3)CN12` (centres unmarked) [Example 62] here?
A: 8700 nM

Q: What about the IC50 (papain) of the same compound?
A: 760 nM

Q: With `O=C(O)COc1ccc(C(=O)OCC2CN3C(=O)CC3O2)cc1` (centres unmarked) [Example 63] as the compound, how does the IC50 (cathepsin B) read?
A: 2000 nM

Q: What about the IC50 (papain) of the same compound?
A: 2900 nM

Q: With `O=C(O)c1ccccc1C(=O)OCC1CN2C(=O)CC2O1` (centres unmarked) [Example 64] as the compound, how does the IC50 (cathepsin B) read?
A: 6900 nM

Q: And the IC50 (papain)?
A: 16000 nM

Q: With `COc1ccc(C(=O)OCC2CN3C(=O)CC3O2)cc1` (centres unmarked) [Example 65] as the compound, how does the IC50 (cathepsin B) read?
A: 8900 nM

Q: What about the IC50 (papain) of the same compound?
A: 2000 nM

Q: Which results are given for `O=C(OCC1CN2C(=O)CC2O1)c1ccc(F)cc1` (centres unmarked) [Example 66]?
A: IC50 (cathepsin B): 3800 nM; IC50 (papain): 2400 nM

Q: What does the source list for `O=C(OCC1CN2C(=O)CC2O1)c1ccc(O)cc1` (centres unmarked) [Example 67]?
A: IC50 (cathepsin B): 3800 nM; IC50 (papain): 2400 nM

Q: With `COc1ccc(C(=O)NCC2CN3C(=O)CC3O2)cc1` (centres unmarked) [Example 68] as the compound, how does the IC50 (cathepsin B) read?
A: 3600 nM

Q: And the IC50 (papain)?
A: 720 nM

Q: Which results are given for `O=C(NC(CO)C(=O)OCC1CN2C(=O)CC2O1)OCc1ccccc1` (centres unmarked) [Example 69]?
A: IC50 (cathepsin B): 2700 nM; IC50 (papain): 1500 nM

Q: What does the source list for `O=C(CNC(=O)OCc1ccccc1)NCC(=O)OCC1CN2C(=O)CC2O1` (centres unmarked) [Example 70]?
A: IC50 (cathepsin B): 6700 nM; IC50 (papain): 350 nM

Q: `O=C(NC(c1ccccc1)C(O)C(=O)OCC1CN2C(=O)CC2O1)c1ccccc1` (centres unmarked) [Example 71] was tested. Which IC50 (cathepsin B) did it give?
A: 240 nM

Q: What about the IC50 (papain) of the same compound?
A: 240 nM

Q: Which results are given for `O=C1CC(OCC2CN3C(=O)CC3O2)N1` (centres unmarked) [Example 73]?
A: IC50 (cathepsin B): 4700 nM; IC50 (papain): 2400 nM

Q: Which IC50 (cathepsin B) does the source give for `O=C(CCCCCCn1ccnn1)NCC1CN2C(=O)CC2O1` (centres unmarked) [Example 74] here?
A: 6500 nM

Q: What about the IC50 (papain) of the same compound?
A: 3300 nM

Q: For `O=C(NCC1CN2C(=O)CC2O1)C1CCCCC1` (centres unmarked) [Example 75], which IC50 (cathepsin B) is on record?
A: 360 nM

Q: What about the IC50 (papain) of the same compound?
A: 3970 nM

Q: Which IC50 (cathepsin B) does the source give for `O=C(O)C1CCCCC1C(=O)OCC1CN2C(=O)CC2O1` (centres unmarked) [Example 76] here?
A: 340 nM

Q: And the IC50 (papain)?
A: 10900 nM
